# Assays:
# [1] = compound: C1CC(C1)(C(=O)[O-])C(=O)[O-].N.N.[Pt+2] [Carboplatin]; conditions: max 10 µM
# How it was run: (§1)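 Cancer cell lines were seeded in 1536-well plates in 7.5 μl DMEM/F12 or RPMI with 10% FBS, held 24 hours at 37°C and 5% CO2, then dosed for 72 hours (final DMSO typically 0.2%). Viability was read by CellTiter-Glo 2.0 luminescence and scaled between blank-well and DMSO-well means. The single-agent IC50 comes from dose responses fitted to a two-parameter logistic curve with a non-linear mixed effects model.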
# [2] = compound: C1CN(CCC1(C(=O)N[C@@H](CCO)C2=CC=C(C=C2)Cl)N)C3=NC=NC4=C3C=CN4 [AZD5363]; conditions: max 10 µM
# How it was run: as §1
# [3] = compound: C=CCn1c(=O)c2cnc(Nc3ccc(N4CCN(C)CC4)cc3)nc2n1-c1cccc(C(C)(C)O)n1 [AZD1775]; conditions: max 3 µM
# How it was run: as §1
# [4] = compound: CC(=O)Nc1cccc(-n2c(=O)n(C3CC3)c(=O)c3c(Nc4ccc(I)cc4F)n(C)c(=O)c(C)c32)c1 [Trametinib]; conditions: max 1 µM
# How it was run: as §1
# [5] = compound: CC(=O)O[C@H]1C(=O)[C@@]2(C)[C@H]([C@H](OC(=O)c3ccccc3)[C@]3(O)C[C@H](OC(=O)[C@H](O)[C@@H](NC(=O)c4ccccc4)c4ccccc4)C(C)=C1C3(C)C)[C@]1(OC(C)=O)CO[C@@H]1C[C@@H]2O [Paclitaxel]; conditions: max 3 µM
# How it was run: as §1
# [6] = compound: CC(=O)c1c(C)c2cnc(Nc3ccc(N4CCNCC4)cn3)nc2n(C2CCCC2)c1=O [Palbociclib]; conditions: max 10 µM
# How it was run: as §1
# [7] = compound: CC(C)n1c(=O)n(C)c2cnc3cc(F)c(-c4ccc(OCCCN5CCCCC5)nc4)cc3c21 [AZD1390]; conditions: max 0.3 µM
# How it was run: as §1
# [8] = compound: CC1(C)CCC(CN2CCN(c3ccc(C(=O)NS(=O)(=O)c4ccc(NCC5CCOCC5)c([N+](=O)[O-])c4)c(Oc4cnc5[nH]ccc5c4)c3)CC2)=C(c2ccc(Cl)cc2)C1 [Venetoclax]; conditions: max 1 µM
# How it was run: as §1
# [9] = compound: CC1=C(C(=CC=C1)Cl)NC(=O)C2=CN=C(S2)NC3=CC(=NC(=N3)C)N4CCN(CC4)CCO [Dasatinib]; conditions: max 2 µM
# How it was run: as §1
# [10] = compound: CC1=CN2[C@@H](C1)C=NC3=CC(=C(C=C3C2=O)OC)OCCCCCOC4=C(C=C5C(=C4)N=C[C@@H]6CC(=CN6C5=O)C)OC [SG3199]; conditions: max 0.001 µM
# How it was run: as §1
# [11] = compound: CCN(CCO)CCCOc1ccc2c(Nc3cc(CC(=O)Nc4cccc(F)c4)[nH]n3)ncnc2c1 [AZD2811]; conditions: max 1 µM
# How it was run: as §1
# [12] = compound: CCc1c2c(nc3ccc(O)cc13)-c1cc3c(c(=O)n1C2)COC(=O)[C@]3(O)CC [SN-38]; conditions: max 0.3 µM
# How it was run: as §1
# [13] = compound: CN(C)CCCOc1ccc(-c2ccc3ncc4c(c3c2)n(C2CCOCC2)c(=O)n4C)cn1 [AZD0156]; conditions: max 3 µM
# How it was run: as §1
# [14] = compound: CN(CC[C@H](CSC1=CC=CC=C1)NC2=C(C=C(C=C2)S(=O)(=O)NC(=O)C3=CC=C(C=C3)N4CCC(CC4)[C@H](C5=CC=CC=C5C6=CC=C(C=C6)Cl)O)S(=O)(=O)C(F)(F)F)CCO [AZD4320]; conditions: max 1 µM
# How it was run: as §1
# [15] = compound: COc1cc(Nc2ncc3c(n2)-c2ccc(Cl)cc2C(c2c(F)cccc2OC)=NC3)ccc1C(=O)O [Alisertib]; conditions: max 10 µM
# How it was run: as §1
# [16] = compound: COc1cc([C@@H]2c3cc4c(cc3[C@@H](O[C@@H]3O[C@@H]5CO[C@@H](C)O[C@H]5[C@H](O)[C@H]3O)[C@H]3COC(=O)[C@H]23)OCO4)cc(OC)c1O [Etoposide]; conditions: max 10 µM
# How it was run: as §1
# [17] = compound: COc1cc2ncnc(Nc3ccc(F)c(Cl)c3)c2cc1OCCCN1CCOCC1 [Gefitinib]; conditions: max 10 µM
# How it was run: as §1
# [18] = compound: COc1cccc(OCCCN)c1-c1cc(Nc2cnc(C#N)cn2)n[nH]1 [Prexasertib]; conditions: max 1 µM
# How it was run: as §1
# [19] = compound: COc1cccc2c1C(=O)c1c(O)c3c(c(O)c1C2=O)C[C@@](O)(C(=O)CO)C[C@@H]3O[C@H]1C[C@H](N)[C@H](O)[C@H](C)O1 [Doxorubicin]; conditions: max 1 µM
# How it was run: as §1
# [20] = compound: COc1nnc2ccc(N3CCC(c4ccc(OCCN5CCN(C)C(=O)[C@H]5C)cc4)CC3)nn12 [AZD5153]; conditions: max 1 µM
# How it was run: as §1
# [21] = compound: CS(=O)(=O)CCNCc1ccc(-c2ccc3ncnc(Nc4ccc(OCc5cccc(F)c5)c(Cl)c4)c3c2)o1 [Lapatinib]; conditions: max 10 µM
# How it was run: as §1
# [22] = compound: C[C@@H](Nc1cc(F)cc(F)c1)c1cc(C(=O)N(C)C)cc2c(=O)cc(N3CCOCC3)oc12 [AZD8186]; conditions: max 10 µM
# How it was run: as §1
# [23] = compound: C[C@@H](Oc1cc(-c2cnn(C3CCNCC3)c2)cnc1N)c1c(Cl)ccc(F)c1Cl [Crizotinib]; conditions: max 10 µM
# How it was run: as §1
# [24] = compound: C[C@@H](c1ccc2nccn2c1)n1nnc2ncc(-c3cnn(C)c3)nc21 [Savolitinib]; conditions: max 1 µM
# How it was run: as §1
# [25] = compound: C[C@@H]1COCCN1C2=NC(=NC(=C2)C3(CC3)[S@](=N)(=O)C)C4=C5C=CNC5=NC=C4 [AZD6738]; conditions: max 10 µM
# How it was run: as §1
# [26] = compound: Cc1c2c(nn1C)CSCc1cc(n(C)n1)CSc1cc(c3ccccc3c1)OCCCc1c(C(=O)O)n(C)c3c-2c(Cl)ccc13 [AZD5991]; conditions: max 1 µM
# How it was run: as §1
# [27] = compound: Cc1cc2ncnn2cc1Nc1ncc2c(n1)n(C1CCOCC1)c(=O)n2C [AZD7648]; conditions: max 10 µM
# How it was run: as §1
# [28] = compound: Cc1nc(-c2cn3c(n2)-c2ccc(-c4cnn(C(C)(C)C(N)=O)c4)cc2OCC3)n(C(C)C)n1 [Taselisib]; conditions: max 10 µM
# How it was run: as §1
# [29] = compound: Cn1cnc2c(F)c(Nc3ccc(Br)cc3Cl)c(C(=O)NOCCO)cc21 [Selumetinib]; conditions: max 10 µM
# How it was run: as §1
# [30] = compound: N#Cc1cnc(Nc2cc(NC[C@H]3CNCCO3)c(C(F)(F)F)cn2)cn1 [SRA737]; conditions: max 10 µM
# How it was run: as §1
# [31] = compound: NC1(c2ccc(-c3nc4ccn5c(=O)[nH]nc5c4cc3-c3ccccc3)cc2)CCC1 [MK-2206]; conditions: max 10 µM
# How it was run: as §1
# [32] = compound: Nc1ccn([C@@H]2O[C@H](CO)[C@@H](O)C2(F)F)c(=O)n1 [Gemcitabine]; conditions: max 0.3 µM
# How it was run: as §1
# [33] = compound: O=C(Nc1ccc2[nH]nc(-c3ccncc3)c2c1)[C@@H]1CCN(CC(=O)N2CCN(c3ccc(-c4ncccn4)cc3)CC2)C1; conditions: max 5 µM
# How it was run: as §1
# [34] = compound: O=C(c1cc(Cc2n[nH]c(=O)c3ccccc23)ccc1F)N1CCN(C(=O)C2CC2)CC1 [Olaparib]; conditions: max 10 µM
# How it was run: as §1
# [35] = compound: O=c1[nH]cc(F)c(=O)[nH]1 [5-Fluorouracil]; conditions: max 20 µM
# How it was run: as §1
Cell Line,"IC50, cell viability 72 h [1]","IC50, cell viability 72 h [2]","IC50, cell viability 72 h [3]","IC50, cell viability 72 h [4]","IC50, cell viability 72 h [5]","IC50, cell viability 72 h [6]","IC50, cell viability 72 h [7]","IC50, cell viability 72 h [8]","IC50, cell viability 72 h [9]","IC50, cell viability 72 h [10]","IC50, cell viability 72 h [11]","IC50, cell viability 72 h [12]","IC50, cell viability 72 h [13]","IC50, cell viability 72 h [14]","IC50, cell viability 72 h [15]","IC50, cell viability 72 h [16]","IC50, cell viability 72 h [17]","IC50, cell viability 72 h [18]","IC50, cell viability 72 h [19]","IC50, cell viability 72 h [20]","IC50, cell viability 72 h [21]","IC50, cell viability 72 h [22]","IC50, cell viability 72 h [23]","IC50, cell viability 72 h [24]","IC50, cell viability 72 h [25]","IC50, cell viability 72 h [26]","IC50, cell viability 72 h [27]","IC50, cell viability 72 h [28]","IC50, cell viability 72 h [29]","IC50, cell viability 72 h [30]","IC50, cell viability 72 h [31]","IC50, cell viability 72 h [32]","IC50, cell viability 72 h [33]","IC50, cell viability 72 h [34]","IC50, cell viability 72 h [35]"
MOG-G-CCM (Low Grade Glioma),> 10000 nM,> 10000 nM,> 3000 nM,> 1000 nM,4.97 nM,> 10000 nM,> 300 nM,> 1000 nM,354 nM,> 1 nM,> 1000 nM,293 nM,> 3000 nM,> 1000 nM,1930 nM,> 10000 nM,> 10000 nM,157 nM,> 1000 nM,449 nM,> 10000 nM,4390 nM,> 10000 nM,> 1000 nM,> 10000 nM,> 1000 nM,> 10000 nM,8270 nM,> 10000 nM,> 10000 nM,> 10000 nM,> 300 nM,> 5000 nM,> 10000 nM,> 20000 nM
SK-GT-4 (Esophageal Adenocarcinoma),> 10000 nM,> 10000 nM,> 3000 nM,90.1 nM,945 nM,> 10000 nM,> 300 nM,> 1000 nM,1500 nM,> 1 nM,> 1000 nM,> 300 nM,> 3000 nM,> 1000 nM,> 10000 nM,> 10000 nM,> 10000 nM,70.7 nM,> 1000 nM,> 1000 nM,> 10000 nM,> 10000 nM,> 10000 nM,> 1000 nM,> 10000 nM,> 1000 nM,> 10000 nM,911 nM,6050 nM,> 10000 nM,> 10000 nM,> 300 nM,4610 nM,> 10000 nM,> 20000 nM
COR-L279 (Small Cell Lung Carcinoma),> 10000 nM,9250 nM,1600 nM,> 1000 nM,< 3 nM,> 10000 nM,> 300 nM,> 1000 nM,> 2000 nM,> 1 nM,93 nM,1.69 nM,> 3000 nM,198 nM,952 nM,843 nM,> 10000 nM,97.9 nM,42.1 nM,178 nM,6640 nM,7510 nM,3710 nM,> 1000 nM,7380 nM,> 1000 nM,> 10000 nM,2130 nM,> 10000 nM,> 10000 nM,3150 nM,34.6 nM,> 5000 nM,3430 nM,> 20000 nM
T-T (Esophageal Squamous Cell Carcinoma),> 10000 nM,> 10000 nM,1770 nM,> 1000 nM,29.3 nM,> 10000 nM,> 300 nM,> 1000 nM,> 2000 nM,> 1 nM,> 1000 nM,115 nM,> 3000 nM,> 1000 nM,> 10000 nM,> 10000 nM,> 10000 nM,350 nM,> 1000 nM,> 1000 nM,> 10000 nM,> 10000 nM,> 10000 nM,> 1000 nM,> 10000 nM,341 nM,> 10000 nM,2980 nM,> 10000 nM,> 10000 nM,> 10000 nM,> 300 nM,> 5000 nM,> 10000 nM,> 20000 nM
DMS-114 (Small Cell Lung Carcinoma),> 10000 nM,> 10000 nM,> 3000 nM,> 1000 nM,132 nM,> 10000 nM,> 300 nM,> 1000 nM,> 2000 nM,> 1 nM,> 1000 nM,230 nM,> 3000 nM,> 1000 nM,> 10000 nM,> 10000 nM,> 10000 nM,> 1000 nM,> 1000 nM,688 nM,> 10000 nM,> 10000 nM,> 10000 nM,> 1000 nM,> 10000 nM,782 nM,> 10000 nM,5190 nM,> 10000 nM,> 10000 nM,> 10000 nM,> 300 nM,> 5000 nM,> 10000 nM,> 20000 nM
